# Where a name gives a salt, the structure may show the parent alone.
# Key:
# [1] = target: T1, Na^+ /H^+ exchanger of rabbit erythrocytes (Oryctolagus cuniculus, UniProt P23791); test: Inhibition of the Na^+/H^+ exchanger of rabbit erythrocytes (amiloride-sensitive sodium influx, flame photometry); assay type: cell-based, rabbit (New Zealand White); details: cholesterol-fed rabbits, hyperosmolar salt/sucrose medium, pH 7.4, 37° C.
# T1 construct: endogenous in cells; host or cells: erythrocytes (whole blood samples) of New Zealand White rabbits (Ivanovas) fed 2% cholesterol
# T1 sequence (P23791 whole entry): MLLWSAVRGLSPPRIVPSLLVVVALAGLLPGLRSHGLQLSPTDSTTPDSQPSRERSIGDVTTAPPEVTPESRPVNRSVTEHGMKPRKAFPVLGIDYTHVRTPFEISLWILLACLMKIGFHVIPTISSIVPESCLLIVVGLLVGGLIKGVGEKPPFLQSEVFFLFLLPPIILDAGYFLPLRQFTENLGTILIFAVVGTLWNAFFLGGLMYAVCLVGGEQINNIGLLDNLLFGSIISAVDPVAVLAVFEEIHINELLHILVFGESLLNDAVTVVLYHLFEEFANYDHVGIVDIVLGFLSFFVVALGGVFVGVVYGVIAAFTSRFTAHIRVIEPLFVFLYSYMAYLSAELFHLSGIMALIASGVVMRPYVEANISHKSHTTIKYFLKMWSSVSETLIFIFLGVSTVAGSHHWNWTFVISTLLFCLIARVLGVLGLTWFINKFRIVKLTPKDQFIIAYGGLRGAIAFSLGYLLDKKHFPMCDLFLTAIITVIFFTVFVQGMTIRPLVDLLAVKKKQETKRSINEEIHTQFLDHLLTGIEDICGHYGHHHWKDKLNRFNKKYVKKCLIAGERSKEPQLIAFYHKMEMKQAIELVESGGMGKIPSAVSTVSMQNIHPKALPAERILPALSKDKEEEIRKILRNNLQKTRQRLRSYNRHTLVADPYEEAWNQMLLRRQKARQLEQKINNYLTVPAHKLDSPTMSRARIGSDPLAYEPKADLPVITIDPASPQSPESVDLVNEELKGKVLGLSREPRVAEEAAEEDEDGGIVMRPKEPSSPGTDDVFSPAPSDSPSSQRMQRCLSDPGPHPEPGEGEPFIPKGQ
# From the text: Inhibition of the Na^+ /H^+ exchanger of rabbit erythrocytes
# New Zealand White rabbits (Ivanovas) were given a standard diet containing 2% cholesterol for six weeks in order to activate Na^+ /H^+ exchange and thus to be able to determine, by flame photometry, the influx of Na^+ into the erythrocytes by way of Na^+ /H^+ exchange. The blood was removed from the aural arteries and rendered incoagulable with 25 IU of potassium heparin. A portion of each sample was used to determine the hematocrit in duplicate by centrifugation. Aliquots of 100 μl in each case were used for measuring the initial content of Na^+ in the erythrocytes.
# In order to determine the amiloride-sensitive sodium influx, 100 μl of each blood sample were in each case incubated in 5 ml of a hyperosmolar salt/sucrose medium (mmol/l: 140 NaCl, 3 KCl, 150 sucrose, 0.1 ouabain, 20 tris-hydroxymethylaminomethane) at pH 7.4 and 37° C. After that, the erythrocytes were washed three times with ice-cold MgCl2 /ouabain solution (mmol/l: 112 MgCl2, 0.1 ouabain), and hemolyzed in 2.0 ml of distilled water. The intracellular content of sodium was determined by flame photometry.
# The net influx of Na^+ was calculated from the difference between the initial sodium values and the sodium content of the erythrocytes following incubation. The amiloride-inhibitable sodium influx was obtained from the difference in the sodium content of the erythrocytes following incubation with and without 3×10^-4 mol/l amiloride. The same procedure was used for the compounds according to the invention.
# rats' hearts = details: isolated rat hearts; cited from earlier work
SMILES,IC50 [1],"potency relative to amiloride, ventricular fibrillation model (rats' hearts)"
"CC(=O)c1cc(C(=O)N=C(N)N)ccc1OCc1ccccc1 [Example 4, 3-Acetyl-4-benzyloxybenzoylguanidine hydrochloride]",1200 nM,–
CCN(c1nc(N)c(C(=O)NC(=N)N)nc1Cl)C(C)C [ethylisopropylamiloride],–,even more potent than amiloride itself
"CC(=O)c1cc(C(=O)N=C(N)N)ccc1O [Example 1, 3-Acetyl-4-hydroxybenzoylguanidine]",2000 nM,–

# Continued, in another order:
IC50 [1],SMILES,"potency relative to amiloride, ventricular fibrillation model (rats' hearts)"
1000 nM,"COc1ccc(C(=O)N=C(N)N)cc1C(C)=O [Example 2, 3-Acetyl-4-methoxybenzoylguanidine hydrochloride]",–
1100 nM,"CC(=O)c1cc(C(=O)N=C(N)N)ccc1OC(C)C [Example 3, 3-Acetyl-4-isopropoxybenzoylguanidine hydrochloride]",–
